Tests used:
TP receptor = target: T1, TP receptor (Homo sapiens, UniProt P21731); experiment: platelet aggregation evoked by I-BOP; assay type: cell-based; conditions: I-BOP 2 ng/0.5 ml; read-out: IC50 for inhibition of aggregation evoked by I-BOP
T1 construct: endogenous in cells; host or cells: washed human platelets
T1 sequence (P21731 1-343): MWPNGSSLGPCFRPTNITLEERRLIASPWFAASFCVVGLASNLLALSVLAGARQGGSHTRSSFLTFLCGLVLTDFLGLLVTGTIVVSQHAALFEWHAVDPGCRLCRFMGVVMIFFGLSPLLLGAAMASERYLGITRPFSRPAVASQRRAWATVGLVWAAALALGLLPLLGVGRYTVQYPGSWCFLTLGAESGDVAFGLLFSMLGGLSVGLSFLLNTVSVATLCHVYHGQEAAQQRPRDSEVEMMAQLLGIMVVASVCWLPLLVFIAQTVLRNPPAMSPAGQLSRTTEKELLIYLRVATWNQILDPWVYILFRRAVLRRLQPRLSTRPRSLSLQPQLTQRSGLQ
Procedure: Venous blood was obtained from healthy human subjects who had not taken NSAID's for at least two weeks. Blood was drawn into plastic syringes containing ACD. It was immediately centrifuged at 23° at 200×g for 15 min. The platelet rich plasma was transferred into fresh plastic tubes and centrifuged at 400×g for 5 min. The supernatant was discarded and the platelet sediment was resuspended in fresh medium containing NaCl (137 mM), KCl (1 mM), NaH2PO4, glucose (5.5 mM), HEPES (20 mM) and CaCl2 (1 mM) and allowed to stand at room temperature for 30 min. A platelet count was made, which determined the volume of platelet suspension needed to make up 350×10^6 cells for each measurement. The aliquot was diluted with medium to make 0.5 ml/assay/cuvette. […]
0.5 ml of platelet suspension was added to siliconized glass tubes (four at a time) and heated with magnetic stirring to 37° for 1 min in a platelet aggregometer (PAP-4C). […] The response was recorded for the next 5 min. […] In experiments where the conversion of tritiated PGH2 was to be monitored, the procedure described above was repeated with tritiated PGH2 instead of unlabeled PGH2. After extraction of the sample as described above, the radiolabeled compounds were analyzed by TLC. Dose response curves for varying amounts of test compounds were generated and the data expressed as % inhibition of collagen-induced platelet aggregation. […]

[1] = intra ocular pressure in rats, eye drops, TonoPen; assay type: in vivo, Brown Norway rats; conditions: 0.005%, one drop daily to left eye, after 10 days' treatment, vs untreated right eye
Procedure: Brown Norway rats (300 g) were purchased from Charles River (St. Constant, Que), and housed (two/cage) in an animal facility with free access to food and water. A light cycle of 12 h on and 12 h off was maintained. Animals were allowed to adjust for one week prior to treatment during which period they were handled daily to get them familiarized with the procedures.
Prior to treatment with test drugs, the rats' intra ocular pressures (IOP) were measured to establish baseline readings. One drop of Didocaine (0.5%, Dioptic Labs, Markham, Ont) was administered to each eye, and the pressure in each eye was measured with a TonoPen (Mentor XL, Innova Medical Ophthalmics, Toronto). The treatment protocol consisted of daily administration of one drop of one of the following substances to the left eye, the right eye being left untreated to act as a control. […] Following this, the animals were left without treatment for 2 weeks (wash-out), and then treatment was started again, the same animals receiving the same drugs. Results are calculated from at least 30 readings/test animal and presented as the mean±SEM (left eye vs right eye), with the exclusion of readings >50 and <10 which were considered spurious and artifactual readings.

IC50 (TP receptor): 60 nM
Structure (SMILES): CCCCC/C=C\CC1CC1[C@@H](O)/C=C\C/C=C\CCCC(=O)OC (stereo partly drawn) [PBT-3, 10(S)-hydroxy-11,12-cyclopropyl-eicosa-5Z,8Z,14Z-trienoic acid methyl ester]
effect on intra ocular pressure (IOP) [1]: significant reduction in IOP, comparable to that produced by latanoprost
